Measured values as given in US20240174618A1, “SUBSTITUTED (2-HETEROARYLOXYPHENYL)SULFONATES, SALTS THEREOF AND THEIR USE AS HERBICIDAL AGENTS” (Bayer Aktiengesellschaft, priority 2021, published 2024).

Columns and labels:
Type in all cases: in vivo
[1] = test system: Echinochloa crus-galli (ECHCG); assay: C. Herbicidal pre-emergence efficacy, ECHCG; details: scored after about 3 weeks
In short: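 Pre-emergence test: formulated compounds sprayed as aqueous suspension or emulsion with 0.5% additive at 600 l/ha onto soil covering sown seeds, at rates corresponding to 320 g/ha or less. After about 3 weeks in greenhouse, efficacy scored visually as percent versus untreated controls (100% = plants dead).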

[2] = test system: Pharbitis purpurea (PHBPU); assay: E. Herbicidal post-emergence efficacy, PHBPU
In short: (§1)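 Greenhouse weeds were treated post-emergence at the one-leaf stage, 2-3 weeks after sowing in sandy loam, with WP or EC formulations sprayed as aqueous suspension/emulsion plus 0.5% additive at 600 l/ha, at 320 g/ha or less. Efficacy was rated visually after about 3 weeks versus untreated controls (100% = dead, 0% = like control).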

Setaria viridis (SETVI) [3] = assay: B. Herbicidal post-emergence efficacy, SETVI
In short: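 Post-emergence greenhouse test: one-leaf-stage plants, compound (WP/EC, +0.5% additive, 600 L/ha water, ≤1280 g/ha) applied to green parts; % efficacy scored visually vs untreated after ~3 wk; 100% = plants died.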

[4] = test system: Amaranthus retroflexus (AMARE); assay: E. Herbicidal post-emergence efficacy, AMARE
In short: as §1

Poa annua (POAAN) = assay: A. Herbicidal pre-emergence efficacy, POAAN
In short: (§2)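 Pre-emergence soil-surface spray in sandy loam pots, WP/EC in water plus 0.5% additive, 600 L/ha. Visual % damage rating after about 3 weeks in greenhouse vs. untreated; 0% = control-like, 100% = dead plants. Rates up to 1280 g/ha.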

Setaria viridis (SETVI) [5] = assay: A. Herbicidal pre-emergence efficacy, SETVI
In short: as §2

Kochia scoparia (KCHSC) = assay: E. Herbicidal post-emergence efficacy, KCHSC
In short: as §1

[6] = test system: Digitaria sanguinalis (DIGSA); assay: A. Herbicidal pre-emergence efficacy, DIGSA; details: scored visually after about 3 weeks vs untreated controls
In short: as §2

| SMILES | Pre-emergence efficacy against ECHCG ([1]; 80 g/ha) [%] | Pre-emergence efficacy against ECHCG ([1]; 320 g/ha) [%] | Post-emergence efficacy against PHBPU in % ([2]; application rate 80 g/ha) [%] | Post-emergence efficacy against PHBPU in % ([2]; application rate 320 g/ha) [%] | Post-emergence efficacy against SETVI (Setaria viridis (SETVI) [3]; 1280 g/ha) [%] | Post-emergence efficacy against AMARE in % ([4]; application rate 80 g/ha) [%] | Post-emergence efficacy against AMARE in % ([4]; application rate 320 g/ha) [%] | Pre-emergence efficacy against POAAN (Poa annua (POAAN); dosage 320 g/ha) [%] | Pre-emergence efficacy against POAAN (Poa annua (POAAN); dosage 1280 g/ha) [%] | Pre-emergence efficacy against SETVI (Setaria viridis (SETVI) [5]; dosage 80 g/ha) [%] | Pre-emergence efficacy against SETVI (Setaria viridis (SETVI) [5]; dosage 320 g/ha) [%] | Pre-emergence efficacy against SETVI (Setaria viridis (SETVI) [5]; dosage 1280 g/ha) [%] | Post-emergence efficacy against KCHSC in % (Kochia scoparia (KCHSC); application rate 80 g/ha) [%] | Post-emergence efficacy against KCHSC in % (Kochia scoparia (KCHSC); application rate 320 g/ha) [%] | Pre-emergence efficacy against DIGSA ([6]; 320 g/ha) [%] | Pre-emergence efficacy against DIGSA ([6]; 1280 g/ha) [%] | Post-emergence efficacy against SETVI (Setaria viridis (SETVI) [3]; 320 g/ha) [%] | Pre-emergence efficacy against DIGSA ([6]; 80 g/ha) [%] | Pre-emergence efficacy against POAAN (Poa annua (POAAN); dosage 80 g/ha) [%] |
| --- | --- | --- | --- | --- | --- | --- | --- | --- | --- | --- | --- | --- | --- | --- | --- | --- | --- | --- | --- |
| O=S(=O)(CCC(F)(F)F)Oc1c(Cl)cccc1Oc1ncc(Cl)cn1 [Example I-38] | 100 | 100 | 100 | 100 | 90 | 100 | 100 | 100 | 100 | 90 | 100 | 100 | 100 | 100 | 100 | 100 | – | – | – |
| O=S(=O)(CCCC(F)(F)F)Oc1c(Cl)cccc1Oc1ncc(Cl)cn1 [Example I-39] | 90 | 100 | 90 | 100 | 90 | 100 | 100 | 100 | 100 | 90 | 100 | 100 | 100 | 100 | 100 | 100 | 90 | 100 | – |
| O=S(=O)(CCC(F)(F)F)Oc1c(F)cccc1Oc1ncc(Br)cn1 [Example I-40] | 100 | 100 | 100 | 100 | 90 | 100 | 100 | 100 | 100 | 100 | 100 | 100 | 100 | 100 | 100 | 100 | 90 | 100 | 100 |
| O=S(=O)(CCCC(F)(F)F)Oc1c(F)cccc1Oc1ncc(Br)cn1 [Example I-41] | 100 | 100 | 100 | 100 | 90 | 100 | 100 | 100 | 100 | 100 | 100 | 100 | 100 | 100 | 100 | 100 | 90 | 100 | 100 |
| O=S(=O)(CCC(F)(F)F)Oc1c(F)cccc1Oc1ncc(Cl)cn1 [Example I-48] | 100 | 100 | 100 | 100 | 90 | 100 | 100 | 100 | 100 | 90 | 90 | 100 | 100 | 100 | 100 | 100 | 90 | 100 | 90 |
| O=S(=O)(CCCC(F)(F)F)Oc1c(F)cccc1Oc1ncc(Cl)cn1 [Example I-49] | 100 | 100 | 100 | 100 | 90 | 100 | 100 | 100 | 100 | 90 | 100 | 100 | 100 | 100 | 90 | 90 | 90 | 90 | 90 |
